Some test systems named below: SK-MEL-5 melanoma; OVCAR-8 ovarian; EKVX NSCLC; ACHN renal; SF-268 CNS; SK-MEL-2 melanoma; HCT-15 colon; SK-MEL-28 melanoma; MCF7 breast; HS 578T breast.
Holding throughout (experiment): growth of human tumour cells (NCI), 48 h

The structures appear in SMILES notation.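 Step 1: Grow cells in 96-well plates. Step 2: Expose to compound for 48 hours at 5 concentrations. Step 3: Interpolate endpoints linearly; if unreached, use highest concentration. GI50 marks 50% less growth. Definition used: TGI = concentration required for complete inhibition of growth.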

On to `CN(C)CCOC(=O)Nc1nc2ccc(Sc3ccccc3)cc2[nH]1`, for which the GI50 in the experiment with SK-MEL-5 melanoma was 3.31 µM; in the experiment on OVCAR-8 ovarian, 4.26 µM; with EKVX NSCLC, 5.75 µM; in the experiment on ACHN renal it was 6.52 µM; with SF-268 CNS it was 6.41 µM; in the experiment on SK-MEL-2 melanoma, 5.55 µM. Moreover, the GI50 in the experiment with HCT-15 colon is 1.96 µM; in the experiment on SK-MEL-28 melanoma it was 9.19 µM; in the experiment on MCF7 breast it was 1.35 µM; with HS 578T breast, 4 µM. Further, the TGI worked out at 12.5 µM in the experiment on SK-MEL-5 melanoma; 26.8 µM in the experiment on OVCAR-8 ovarian; 22.7 µM with EKVX NSCLC; 19.2 µM with ACHN renal; 25.4 µM in the experiment on SF-268 CNS; 22.2 µM in the experiment with SK-MEL-2 melanoma. The TGI came out at 16.2 µM in the experiment on HCT-15 colon, 24.3 µM in the experiment on SK-MEL-28 melanoma, 15.2 µM in the experiment on MCF7 breast and 28.8 µM in the experiment on HS 578T breast.
`CSc1ccc(C(=O)/C=C/c2ccccc2Cl)cc1`: the GI50 in the experiment with SK-MEL-5 melanoma was 16.7 µM; with OVCAR-8 ovarian, 15.8 µM; in the experiment with EKVX NSCLC it was 19.7 µM; in the experiment on ACHN renal, 15 µM; with SF-268 CNS, 22.4 µM; with SK-MEL-2 melanoma it was 16.2 µM. For the same molecule, the GI50 was 7.73 µM in the experiment on HCT-15 colon, 23.4 µM with SK-MEL-28 melanoma, 32.2 µM in the experiment with MCF7 breast and 21.9 µM in the experiment on HS 578T breast. The TGI was determined as 31.6 µM in the experiment with SK-MEL-5 melanoma; 32.5 µM in the experiment with OVCAR-8 ovarian; 37 µM with EKVX NSCLC; 28.5 µM in the experiment on ACHN renal; 53.3 µM in the experiment on SF-268 CNS; 37.7 µM with SK-MEL-2 melanoma. The TGI in the experiment with HCT-15 colon was 28.9 µM; with SK-MEL-28 melanoma, 52.9 µM; with MCF7 breast, over 100 µM; with HS 578T breast, 55.6 µM.
`COc1cc(/C=C/C(=O)c2c(C)nc3ccccc3c2C)ccc1OCCCN1CCN(C(=O)c2ccco2)CC1`: the GI50 with SK-MEL-5 melanoma was 2.12 µM; in the experiment with OVCAR-8 ovarian it was 8.43 µM; in the experiment with EKVX NSCLC it was 7.76 µM; with ACHN renal, 10.2 µM; with SF-268 CNS it was 10.9 µM; in the experiment on SK-MEL-2 melanoma it was 16.1 µM. Further, the GI50 was 5.74 µM in the experiment on HCT-15 colon, 12.7 µM with SK-MEL-28 melanoma, 3.8 µM in the experiment with MCF7 breast and 12 µM in the experiment with HS 578T breast. The TGI with SK-MEL-5 melanoma was 12.6 µM; with OVCAR-8 ovarian it was 42.4 µM; in the experiment on EKVX NSCLC, 42.6 µM; in the experiment with ACHN renal, 25.1 µM; in the experiment on SF-268 CNS, 25.8 µM; in the experiment with SK-MEL-2 melanoma, 37.7 µM. Besides, the TGI in the experiment with HCT-15 colon was determined as 30.9 µM; in the experiment with SK-MEL-28 melanoma, 25.3 µM; in the experiment on MCF7 breast, 15.8 µM; in the experiment with HS 578T breast it was 51.8 µM.
For `N#CC1C(=O)NC(c2ccccc2[N+](=O)[O-])c2sc3c(F)cccc3c21` (stereo not given), the GI50 with SK-MEL-5 melanoma is 14.3 µM; in the experiment with OVCAR-8 ovarian, 9.59 µM; in the experiment on EKVX NSCLC, 3.41 µM; in the experiment with ACHN renal it was 15.7 µM; in the experiment on SF-268 CNS, 15.8 µM; with SK-MEL-2 melanoma, 9.03 µM. In addition, the GI50 is 10.4 µM with HCT-15 colon, 29.5 µM with SK-MEL-28 melanoma, 0.216 µM in the experiment on MCF7 breast and 15.2 µM in the experiment with HS 578T breast. In addition, the TGI in the experiment with SK-MEL-5 melanoma is 33.8 µM; in the experiment with OVCAR-8 ovarian, 80.9 µM; in the experiment on EKVX NSCLC it was 41.8 µM; in the experiment on ACHN renal, over 100 µM; in the experiment with SF-268 CNS it was 56.9 µM; in the experiment on SK-MEL-2 melanoma, 49.8 µM. Moreover, the TGI in the experiment on HCT-15 colon is 61.2 µM; in the experiment on SK-MEL-28 melanoma, over 100 µM; with MCF7 breast, 37 µM; with HS 578T breast, 69.9 µM.
As for `COCc1c(-c2ccc(NC(=O)Nc3cc(C(F)(F)F)ccc3F)c(F)c2)c2c(N)ncnn2c1CN1CCOCC1`, the GI50 is 2.49 µM in the experiment on SK-MEL-5 melanoma; 2.66 µM in the experiment on OVCAR-8 ovarian; 1.71 µM in the experiment on EKVX NSCLC; 1.48 µM with ACHN renal; 1.13 µM in the experiment with SF-268 CNS; 1.07 µM in the experiment on SK-MEL-2 melanoma. Besides, the GI50 with HCT-15 colon was 1.74 µM; with SK-MEL-28 melanoma, 3.02 µM; with MCF7 breast, 2.2 µM; in the experiment on HS 578T breast, 0.138 µM. In addition, the TGI in the experiment with SK-MEL-5 melanoma is over 10 µM; in the experiment on OVCAR-8 ovarian, over 10 µM; in the experiment with EKVX NSCLC, 7.62 µM; in the experiment on ACHN renal, over 10 µM; in the experiment with SF-268 CNS, 5.2 µM; in the experiment on SK-MEL-2 melanoma, 2.58 µM. Besides, the TGI in the experiment on HCT-15 colon was over 10 µM; in the experiment on SK-MEL-28 melanoma, over 10 µM; with MCF7 breast, 8.23 µM; in the experiment with HS 578T breast, 0.733 µM.
For `Cc1nccc2c3ccc(OCc4cn(-c5ccc(Cl)cc5)nn4)cc3n(CC(C)C)c12`, the GI50 was 1.64 µM in the experiment on SK-MEL-5 melanoma; 2.73 µM in the experiment on OVCAR-8 ovarian; 2.14 µM in the experiment with EKVX NSCLC; 3.62 µM with ACHN renal; 11.2 µM with SF-268 CNS; 5.59 µM in the experiment on SK-MEL-2 melanoma. Besides, the GI50 in the experiment on HCT-15 colon was 1.28 µM; in the experiment with SK-MEL-28 melanoma, 4.14 µM; in the experiment on MCF7 breast, 1.45 µM; in the experiment with HS 578T breast, 2.62 µM. Further, the TGI with SK-MEL-5 melanoma is 6.15 µM; with OVCAR-8 ovarian it was 16.2 µM; in the experiment on EKVX NSCLC, 32.6 µM; in the experiment on ACHN renal, 9.59 µM; in the experiment on SF-268 CNS, over 33.3 µM; with SK-MEL-2 melanoma, 22.5 µM. In addition, the TGI stood at 21.5 µM in the experiment with HCT-15 colon, 18.2 µM in the experiment on SK-MEL-28 melanoma, 9.29 µM in the experiment on MCF7 breast and 30.1 µM in the experiment on HS 578T breast.
